Legend:
platelets = assay: Dog antiplatelet IC50; type: cell-based
thrombin = thrombin (Bos taurus, UniProt P00735); assay: biochemical; conditions: bovine; read-out: Bovine Antithrombin IC50

IC50 (platelets)	SMILES	IC50 (thrombin)
250 µM	CC[C@H](C)[C@H](NC(=O)[C@@H]1CCCN1C(=O)[C@H](CCC(=O)O)NC(=O)[C@H](Cc1c[nH]c2ccccc12)NC(=O)[C@H](CC(=O)O)NC(=O)CNC(=O)CCCCN)C(=O)N1CCC[C@H]1C(=O)N[C@@H](CCC(=O)O)C(=O)N[C@@H](CCC(=O)O)C(=O)N[C@@H](C)C(=O)N[C@@H](CC1CCCCC1)C(=O)N[C@H](CCC(=O)O)C(=O)O [Example 2]	–
–	CC[C@H](C)[C@H](NC(=O)[C@@H]1CCCN1C(=O)[C@H](CCC(=O)O)NC(=O)[C@H](Cc1c[nH]c2ccccc12)NC(=O)[C@H](CC(=O)O)NC(=O)CNC(=O)[C@@H](N)CCCNC(=N)N)C(=O)N1CCC[C@H]1C(=O)N[C@@H](CCC(=O)O)C(=O)N[C@@H](CCC(=O)O)C(=O)N[C@@H](C)C(=O)N[C@@H](CC1CCCCC1)C(=O)N[C@H](CCC(=O)O)C(=O)O [Example 3]	2.8 µM

Source: patent US5574012A, “Analogs of hirudin having anti-platelet activity” (Merrell Pharmaceuticals Inc., priority 1995, dated 1996)
